# Values of other authors in patent US20040208853A1, “Method and device for sanitation using bacteriophages” (priority 2000, published 2004).
# System: bacterial counts on fresh-cut fruits
# Conditions: most effective chemical sanitizer
structure (smiles),measurement,value
OO [hydrogen peroxide],maximum reduction rate in bacterial counts on fresh-cut fruits,1.3 logs
